Experimental data as given in patent US20240148821A1, “PHARMACEUTICAL USE OF CYCLIC PEPTIDE COMPOUND” (CHUGAI SEIYAKU KABUSHIKI KAISHA, priority 2021, published 2024).
pIC50: −log10 of the molar value. Numbered stars: 1 amine (or outer) side, 2 acyl side, 3 side chain; on linkers, the order of the positions; unused ones are H or OH. Bridge positions count the residues as written; N and C are the ends. Square brackets hold non-standard residues; d marks the D form. Peptide text beside a SMILES is read from it. * marks the point of attachment. NMeAbu(3,3-F2-piperidino) = CN[C@@H](CCN1CCCC(F)(F)C1)C(=O)O; hPhe(3-Cl-4-CF3) = N[C@@H](CCc1ccc(C(F)(F)F)c(Cl)c1)C(=O)O; NMePhe(4-CF3) = CN[C@@H](Cc1ccc(C(F)(F)F)cc1)C(=O)O; Phe(2-OCF3) = N[C@@H](Cc1ccccc1OC(F)(F)F)C(=O)O; NMeAbu(4,4,4-F3) = CN[C@@H](CC(F)(F)F)C(=O)O; NMePhe(4-Me) = CN[C@@H](Cc1ccc(C)cc1)C(=O)O; NMeAla(cPent) = CN[C@@H](CC1CCCC1)C(=O)O; NMeGly(cPent) = CN[C@H](C(=O)O)C1CCCC1; Phe(3-I) = N[C@@H](Cc1cccc(I)c1)C(=O)O; X26 = CC(C)=CC[C@H](N[*:1])C(=O)[*:2]; NMeCha = CN[C@@H](CC1CCCCC1)C(=O)O; Hyp = O=C(O)[C@@H]1C[C@@H](O)CN1; NEtLeu = CCN[C@@H](CC(C)C)C(=O)O; NMeChg = CN[C@H](C(=O)O)C1CCCCC1; NMeI = CC[C@H](C)[C@H](NC)C(=O)O; NMeD = CN[C@@H](CC(=O)O)C(=O)O; NMeL = CN[C@@H](CC(C)C)C(=O)O; NMeV = CN[C@H](C(=O)O)C(C)C; NMeA = CN[C@@H](C)C(=O)O; NMeAib = CNC(C)(C)C(=O)O; Piperidide = C1CCN(*)CC1; Pyrrolidide = C1CCN(*)C1; Ac5c = NC1(C(=O)O)CCCC1; Aze = O=C(O)[C@@H]1CCN1; Sar = CNCC(=O)O

tested on: Human pancreatic cancer cell line AsPC-1 (G12D mutation Kras); assay: AsPC-1 cell growth inhibition (AsPC-1 CGI); format: cell-based; conditions: read-out: AsPC-1 cell growth inhibition, 50% growth inhibitory concentration (IC50 value); 96 hours, CellTiter-Glo, values classified in ranges
Method: Test compounds were serially dilated with dimethyl sulfoxide, and 200 nL was then dispensed to a U-bottom 96-well plate using Labcyte Echo. […] The cell suspension was dispensed to a. plate containing a test compound at 100 μL per well and incubated at 37° C. in a 5% carbon dioxide gas incubator. 96 hours later, 80 μL of CellTiter-Glo (Promega) was added to each well and fluorescence was measured.

Row | Compound | pIC50
1 | CC[C@H](C)[C@@H]1NC(=O)[C@H](C)N(C)C(=O)C[C@@H](C(=O)N2CCCCC2)N(C)C(=O)[C@H](C(C)C)N(C)C(=O)C2(CCCC2)NC(=O)[C@@H]2CCCN2C(=O)[C@H](CCc2ccc(C(F)(F)F)c(Cl)c2)NC(=O)CN(C)C(=O)[C@H](CC2CCCCC2)N(C)C(=O)[C@@H]2CCCN2C(=O)CN(C)C1=O [Compound 1121] ([NMeA]I[Sar]P[NMeCha][Sar][hPhe(3-Cl-4-CF3)]P[Ac5c][NMeV][NMeD]-Piperidide; lactam N-11) | < 6.30
2 | CC[C@H](C)[C@@H]1NC(=O)[C@H](CC(C)C)N(C)C(=O)C[C@@H](C(=O)N2CCCCC2)N(C)C(=O)[C@H](CC(C)C)NC(=O)C(C)(C)N(C)C(=O)[C@H](Cc2ccccc2OC(F)(F)F)NC(=O)[C@H](Cc2cccc(I)c2)NC(=O)CN(C)C(=O)[C@H](Cc2ccc(C)cc2)N(C)C(=O)[C@@H]2CCN2C(=O)[C@H](C)N(C)C1=O [Compound 1129] ([NMeL]I[NMeA][Aze][NMePhe(4-Me)][Sar][Phe(3-I)][Phe(2-OCF3)][NMeAib]L[NMeD]-Piperidide; lactam N-11) | < 6.30
3 | CC(C)=CC[C@@H]1NC(=O)[C@H](CC(C)C)N(C)C(=O)C[C@@H](C(=O)N2CCCCC2)N(C)C(=O)[C@H](C2CCCCC2)N(C)C(=O)C2(CCCC2)NC(=O)[C@@H]2CCCN2C(=O)[C@H](CCc2ccc(C(F)(F)F)c(Cl)c2)NC(=O)CN(C)C(=O)[C@H](CC2CCCCC2)N(C)C(=O)CN(C)C(=O)CN(C)C1=O [Compound 1134] ([NMeL][X26][Sar][Sar][NMeCha][Sar][hPhe(3-Cl-4-CF3)]P[Ac5c][NMeChg][NMeD]-Piperidide; lactam N-11) | < 6.30
4 | CC[C@H](C)[C@@H]1NC(=O)[C@H](CC(C)C)N(C)C(=O)C[C@@H](C(=O)N(C)C)N(C)C(=O)[C@H]([C@@H](C)CC)N(C)C(=O)[C@H](C)NC(=O)[C@H](CCN2CCCC(F)(F)C2)N(C)C(=O)[C@H](CCc2ccc(C(F)(F)F)c(Cl)c2)NC(=O)CN(C)C(=O)[C@H](Cc2ccc(C)cc2)N(C)C(=O)[C@@H]2CCN2C(=O)[C@H](C)N(C)C1=O [Compound 1135] ([NMeL]I[NMeA][Aze][NMePhe(4-Me)][Sar][hPhe(3-Cl-4-CF3)][NMeAbu(3,3-F2-piperidino)]A[NMeI][NMeD]-NMe2; lactam N-11) | < 6.30
5 | CC[C@H](C)[C@@H]1NC(=O)[C@H](CC(C)C)N(C)C(=O)C[C@@H](C(=O)N2CCCCC2)N(C)C(=O)[C@H](C2CCCCC2)N(C)C(=O)[C@@H](C(C)C)NC(=O)[C@@H]2CCCN2C(=O)[C@H](CCc2ccc(C(F)(F)F)c(Cl)c2)NC(=O)CN(C)C(=O)[C@H](CC2CCCCC2)N(C)C(=O)CN(C)C(=O)CN(C)C1=O [Compound 1138] ([NMeL]I[Sar][Sar][NMeCha][Sar][hPhe(3-Cl-4-CF3)]P[dV][NMeChg][NMeD]-Piperidide; lactam N-11) | < 6.30
6 | CCO[C@@H]1C[C@H]2C(=O)NC3(CCCC3)C(=O)N(C)[C@@H](C3CCCCC3)C(=O)N(C)[C@H](C(=O)N3CCCC3)CC(=O)N(C)[C@@H](CC(F)(F)F)C(=O)N[C@@H]([C@@H](C)CC)C(=O)N(C)CC(=O)N(C)CC(=O)N(C)[C@@H](Cc3ccc(C(F)(F)F)cc3)C(=O)N(C)CC(=O)N[C@@H](CCc3ccc(C(F)(F)F)c(Cl)c3)C(=O)N2C1 [Compound 1139] ([NMeAbu(4,4,4-F3)]I[Sar][Sar][NMePhe(4-CF3)][Sar][hPhe(3-Cl-4-CF3)][Hyp](Et)[Ac5c][NMeChg][NMeD]-Pyrrolidide; lactam N-11) | ≥ 7.70
7 | CC[C@H](C)[C@@H]1NC(=O)[C@H](CC2CCCC2)N(C)C(=O)C[C@@H](C(=O)N(C)C)N(C)C(=O)[C@H]([C@@H](C)CC)N(C)C(=O)C2(CCCC2)NC(=O)[C@@H]2CCCN2C(=O)[C@H](CCc2ccc(C(F)(F)F)c(Cl)c2)NC(=O)CN(C)C(=O)[C@H](Cc2ccc(C)cc2)N(C)C(=O)[C@@H]2CCN2C(=O)[C@H](C)NC1=O [Compound 1141] ([NMeAla(cPent)]IA[Aze][NMePhe(4-Me)][Sar][hPhe(3-Cl-4-CF3)]P[Ac5c][NMeI][NMeD]-NMe2; lactam N-11) | ≥ 7.70
8 | CC[C@H](C)[C@@H]1NC(=O)[C@H](CC(C)C)N(CC)C(=O)C[C@@H](C(=O)N(C)C)N(C)C(=O)[C@H](C2CCCC2)N(C)C(=O)C2(CCCC2)NC(=O)[C@@H]2CCCN2C(=O)[C@H](CCc2ccc(C(F)(F)F)c(Cl)c2)NC(=O)CN(C)C(=O)[C@H](Cc2ccc(C)cc2)N(C)C(=O)[C@@H]2CCN2C(=O)[C@H](C)N(C)C1=O [Compound 1148] ([NEtLeu]I[NMeA][Aze][NMePhe(4-Me)][Sar][hPhe(3-Cl-4-CF3)]P[Ac5c][NMeGly(cPent)][NMeD]-NMe2; lactam N-11) | ≥ 7.70
9 | CC[C@H](C)[C@@H]1NC(=O)[C@H](CC(C)C)N(C)C(=O)C[C@@H](C(=O)N2CCCCC2)N(C)C(=O)[C@H](C2CCCCC2)N(C)C(=O)[C@H](C(C)C)NC(=O)[C@@H]2CCCN2C(=O)[C@H](CCc2ccc(C(F)(F)F)c(Cl)c2)NC(=O)CN(C)C(=O)[C@H](CC2CCCCC2)N(C)C(=O)CN(C)C(=O)CN(C)C1=O [Compound 1157] ([NMeL]I[Sar][Sar][NMeCha][Sar][hPhe(3-Cl-4-CF3)]PV[NMeChg][NMeD]-Piperidide; lactam N-11) | < 6.30
